Results from ChEMBL document CHEMBL3745637, “New hybrid molecules with anticonvulsant and antinociceptive activity derived from 3-methyl- or 3,3-dimethyl-1-[1-oxo-1-(4-phenylpiperazin-1-yl)propan-2-yl]pyrrolidine-2,5-diones” (Bioorg Med Chem, 2016).
Calls of active or inactive are those of the source. The rule behind the calls is not given here.

Legend:
[1] = Neurotoxicity in ip dosed Swiss mouse seizure model assessed as motor impairment pretreated for 0.25 hrs measured within 60 s by chimney test; type: toxicity, organism-based; conditions: in vivo
[2] = tested on: Mus musculus; experiment: Anticonvulsant activity in Swiss mouse assessed as protection against maximal electroshock-induced seizures at 100 mg/kg, ip pretreated for 2 hrs; type: functional, organism-based
[3] = Protective index, ratio of TD50 for neurotoxicity in ip dosed Swiss mouse to ED50 for anticonvulsant activity in ip dosed scPTZ Swiss mouse model at 0.25 hrs; type: toxicity, organism-based; conditions: in vivo, read-out: Ratio TD50/ED50
[4] = tested on: Mus musculus; experiment: Antinociceptive activity in ip dosed Swiss mouse assessed as reduction of formalin-induced licking at MES ED50 pretreated for 0.5 hrs measured during 1 to 5 mins; type: functional, organism-based
[5] = tested on: Mus musculus; experiment: Anticonvulsant activity against Swiss mouse seizure model assessed as protection at 100 mg/kg, ip pretreated for 0.5 hrs by 6 Hz psychomotor seizure test; type: functional, organism-based
[6] = Neurotoxicity in ip dosed Swiss mouse seizure model assessed as motor impairment pretreated for 0.5 hrs measured within 60 s by chimney test; type: toxicity, organism-based; conditions: in vivo
[7] = Protective index, ratio of TD50 for neurotoxicity in ip dosed Swiss mouse to ED50 for anticonvulsant activity in ip dosed Swiss mouse 6 Hz psychomotor seizure model at 0.5 hrs; type: toxicity, organism-based; conditions: in vivo, read-out: Ratio TD50/ED50
[8] = tested on: Mus musculus; experiment: Anticonvulsant activity in Swiss mouse assessed as prolong latency to first seizure episode at 60 mg/kg pretreated for 0.5 hrs measured after 30 mins by subcutaneous pentylenetetrazole seizure test; type: functional, organism-based
[9] = molecular target: T1, Glutamate NMDA receptor (Rattus norvegicus) (UniProt P35439+Q00959+Q00960+Q00961+Q62645+Q8VHN2+Q9R1M7); experiment: Displacement of [3H]CGP-39653 from NMDA receptor in rat cerebral cortex at 500 uM after 60 mins by scintillation counting method; type: tissue-based
[10] = tested on: Mus musculus; experiment: Anticonvulsant activity in Swiss mouse assessed as protection against maximal electroshock-induced seizures at 300 mg/kg, ip pretreated for 2 hrs; type: functional, organism-based
[11] = species on record: Rattus norvegicus; experiment: Displacement of [3H]nitrendipine from calcium channel L-Type dihydropyridine site in rat cerebral cortex at 500 uM after 120 mins by scintillation counting method; type: tissue-based
[12] = tested on: Mus musculus; experiment: Anticonvulsant activity in Swiss mouse assessed as protection against maximal electroshock-induced seizures at 300 mg/kg, ip pretreated for 0.5 hrs; type: functional, organism-based
[13] = Protective index, ratio of TD50 for neurotoxicity in ip dosed Swiss mouse to ED50 for anticonvulsant activity in ip dosed MES Swiss mouse model at 0.25 hrs; type: toxicity, organism-based; conditions: in vivo, read-out: Ratio TD50/ED50
[14] = Protective index, ratio of TD50 for neurotoxicity in ip dosed Swiss mouse to ED50 for anticonvulsant activity in ip dosed Swiss mouse 6 Hz psychomotor seizure model at 0.25 hrs; type: toxicity, organism-based; conditions: in vivo, read-out: Ratio TD50/ED50
[15] = species on record: Rattus norvegicus; experiment: Displacement of [3H]Batrachotoxinin from sodium channel site 2 in rat cerebral cortex at 500 uM after 60 mins by scintillation counting method; type: tissue-based
[16] = tested on: Mus musculus; experiment: Potency index, ratio of ethosuximide ED50 to compound ED50 for anticonvulsant activity in ip dosed scPTZ Swiss mouse model at 0.25 hrs; type: functional
[17] = Protective index, ratio of TD50 for neurotoxicity in ip dosed Swiss mouse to ED50 for anticonvulsant activity in ip dosed scPTZ Swiss mouse model at 0.5 hrs; type: toxicity, organism-based; conditions: in vivo, read-out: Ratio TD50/ED50
[18] = species on record: Rattus norvegicus; experiment: Displacement of [3H]Batrachotoxinin from sodium channel site 2 in rat cerebral cortex at 100 uM after 60 mins by scintillation counting method; type: tissue-based
[19] = molecular target: T1, Glutamate NMDA receptor (Rattus norvegicus); experiment: Displacement of [3H]CGP-39653 from NMDA receptor in rat cerebral cortex at 100 uM after 60 mins by scintillation counting method; type: tissue-based
[20] = species on record: Rattus norvegicus; experiment: Displacement of [3H]nitrendipine from calcium channel L-Type dihydropyridine site in rat cerebral cortex at 100 uM after 120 mins by scintillation counting method; type: tissue-based
[21] = tested on: Mus musculus; experiment: Anticonvulsant activity against ip dosed Swiss mouse seizure model assessed as protection at 0.5 hrs by 6 Hz psychomotor seizure test; type: functional
[22] = tested on: Mus musculus; experiment: Anticonvulsant activity against Swiss mouse seizure model assessed as protection at 100 mg/kg, ip pretreated for 0.25 hrs by 6 Hz psychomotor seizure test; type: functional, organism-based
[23] = tested on: Mus musculus; experiment: Anticonvulsant activity in ip dosed Swiss mouse assessed as reduction in clonic seizures at 0.25 hrs by subcutaneous pentylenetetrazole seizure test; type: functional
[24] = tested on: Mus musculus; experiment: Anticonvulsant activity in ip dosed Swiss mouse assessed as protection against maximal electroshock-induced seizures at 0.5 hrs; type: functional
[25] = tested on: Mus musculus; experiment: Antinociceptive activity in ip dosed Swiss mouse assessed as reduction of formalin-induced licking at MES ED50 pretreated for 0.5 hrs measured during 15 to 20 mins; type: functional; parameters: scale not given: the % may be the effect or the level left
[26] = tested on: Mus musculus; experiment: Anticonvulsant activity against ip dosed Swiss mouse seizure model assessed as protection at 0.25 hrs by 6 Hz psychomotor seizure test; type: functional
[27] = Protective index, ratio of TD50 for neurotoxicity in ip dosed Swiss mouse to ED50 for anticonvulsant activity in ip dosed MES Swiss mouse model at 0.5 hrs; type: toxicity, organism-based; conditions: in vivo, read-out: Ratio TD50/ED50
[28] = tested on: Mus musculus; experiment: Anticonvulsant activity in ip dosed Swiss mouse assessed as protection against maximal electroshock-induced seizures at 0.25 hrs; type: functional
[29] = tested on: Mus musculus; experiment: Anticonvulsant activity in ip dosed Swiss mouse assessed as prolong latency to first seizure episode pretreated for 0.5 hrs measured after 30 mins by subcutaneous pentylenetetrazole seizure test; type: functional, organism-based
[30] = tested on: Mus musculus; experiment: Anticonvulsant activity in ip dosed Swiss mouse assessed as reduction in clonic seizures at 0.5 hrs by subcutaneous pentylenetetrazole seizure test; type: functional
[31] = tested on: Mus musculus; experiment: Anticonvulsant activity in Swiss mouse assessed as prolong latency to first seizure episode at 120 mg/kg pretreated for 0.25 hrs measured after 30 mins by subcutaneous pentylenetetrazole seizure test; type: functional, organism-based
[32] = tested on: Mus musculus; experiment: Anticonvulsant activity in Swiss mouse assessed as prolong latency to first seizure episode at 250 mg/kg pretreated for 0.5 hrs measured after 30 mins by subcutaneous pentylenetetrazole seizure test; type: functional, organism-based
[33] = tested on: Mus musculus; experiment: Anticonvulsant activity in ip dosed Swiss mouse assessed as reduction in clonic seizures at 1 hr by subcutaneous pentylenetetrazole seizure test; type: functional
[34] = tested on: Mus musculus; experiment: Anticonvulsant activity in ip dosed Swiss mouse assessed as protection against maximal electroshock-induced seizures at 1 hr; type: functional
[35] = Protective index, ratio of TD50 for neurotoxicity in ip dosed Swiss mouse to ED50 for anticonvulsant activity in ip dosed Swiss mouse 6 Hz psychomotor seizure model at 1 hr; type: toxicity, organism-based; conditions: in vivo, read-out: Ratio TD50/ED50
[36] = Neurotoxicity in ip dosed Swiss mouse seizure model assessed as motor impairment pretreated for 1 hr measured within 60 s by chimney test; type: toxicity, organism-based; conditions: in vivo
[37] = tested on: Mus musculus; experiment: Anticonvulsant activity in Swiss mouse assessed as reduction in clonic seizures at 100 mg/kg, ip pretreated for 2 hrs measured after 30 mins by subcutaneous pentylenetetrazole seizure test; type: functional, organism-based
[38] = tested on: Mus musculus; experiment: Antinociceptive activity in ip dosed Swiss mouse assessed as reduction of formalin-induced licking at MES ED50 pretreated for 0.25 hrs measured during 1 to 5 mins; type: functional; parameters: scale not given: the % may be the effect or the level left
[39] = tested on: Mus musculus; experiment: Anticonvulsant activity in ip dosed Swiss mouse assessed as prolong latency to first seizure episode pretreated for 0.25 hrs measured after 30 mins by subcutaneous pentylenetetrazole seizure test; type: functional, organism-based
[40] = tested on: Mus musculus; experiment: Antinociceptive activity in ip dosed Swiss mouse assessed as reduction of formalin-induced licking at MES ED50 pretreated for 0.25 hrs measured during 15 to 20 mins; type: functional; parameters: scale not given: the % may be the effect or the level left
[41] = tested on: Mus musculus; experiment: Anticonvulsant activity in Swiss mouse assessed as protection against maximal electroshock-induced seizures at 300 mg/kg, ip pretreated for 0.25 hrs; type: functional, organism-based
[42] = tested on: Mus musculus; experiment: Anticonvulsant activity in Swiss mouse assessed as protection against maximal electroshock-induced seizures at 100 mg/kg, ip pretreated for 0.25 hrs; type: functional, organism-based
[43] = tested on: Mus musculus; experiment: Anticonvulsant activity in Swiss mouse assessed as reduction in clonic seizures at 100 mg/kg, ip pretreated for 1 hr measured after 30 mins by subcutaneous pentylenetetrazole seizure test; type: functional, organism-based
[44] = tested on: Mus musculus; experiment: Antinociceptive activity in ip dosed Swiss mouse assessed as reduction of formalin-induced licking at MES ED50 pretreated for 0.25 hrs measured during 20 to 25 mins; type: functional; parameters: scale not given: the % may be the effect or the level left
[45] = tested on: Mus musculus; experiment: Antinociceptive activity in ip dosed Swiss mouse assessed as reduction of formalin-induced licking at MES ED50 pretreated for 0.25 hrs measured during 15 to 30 mins; type: functional, organism-based
[46] = tested on: Mus musculus; experiment: Anticonvulsant activity in Swiss mouse assessed as protection against maximal electroshock-induced seizures at 300 mg/kg, ip pretreated for 1 hr; type: functional, organism-based
[47] = tested on: Mus musculus; experiment: Anticonvulsant activity in Swiss mouse assessed as reduction in clonic seizures at 100 mg/kg, ip pretreated for 0.25 hrs measured after 30 mins by subcutaneous pentylenetetrazole seizure test; type: functional, organism-based
[48] = tested on: Mus musculus; experiment: Antinociceptive activity in ip dosed Swiss mouse assessed as reduction of formalin-induced licking at MES ED50 pretreated for 0.25 hrs measured during 25 to 30 mins; type: functional; parameters: scale not given: the % may be the effect or the level left
[49] = tested on: Mus musculus; experiment: Anticonvulsant activity in Swiss mouse assessed as reduction in clonic seizures at 100 mg/kg, ip pretreated for 0.5 hrs measured after 30 mins by subcutaneous pentylenetetrazole seizure test; type: functional, organism-based

Compound | TD50 at 0.25 h [1] [mg/kg] | Activity [2] | selectivity ratio at 0.25 h [3] | Activity [5] | TD50 at 0.5 h [6] [mg/kg] | selectivity ratio at 0.5 h [7] | Activity [12] | selectivity ratio at 0.25 h [13] | selectivity ratio at 0.25 h [14] | ED50 [21] [mg/kg] | Activity [22] | ED50 [23] [mg/kg] | ED50 [24] [mg/kg] | ED50 [26] [mg/kg] | selectivity ratio at 0.5 h [27] | ED50 [28] [mg/kg] | ED50 [30] [mg/kg] | Activity [37] | Activity [38] | Activity [40] [%] | other results
CC1CC(=O)N(C(C)C(=O)N2CCN(c3cccc(C(F)(F)F)c3)CC2)C1=O (stereo unspecified) | 285 | inactive | 4.33 | Active | 213 | 12.7 | Active | 3.49 | 11.6 | 16.8 | Active | 65.7 | 74.8 | 24.6 | 2.85 | 81.7 | 51.6 |  |  |  | Activity [4]: inactive; Activity [8]: Active; Activity [9]: inactive; Activity [10]: Active; inhibition [11]: 78.5%; inhibition [15]: 76.3%; Ratio ED50 [16]: 2.2; selectivity ratio at 0.5 h [17]: 4.13; inhibition [18]: 29.9%; Activity [19]: inactive; inhibition [20]: 38.1%; Activity [25]: 84%; Activity [29]: Dose-dependent effect
CCC1(C)CC(=O)NC1=O (stereo unspecified) [ETHOSUXIMIDE] |  |  | 4.89 |  |  |  |  |  |  |  |  |  |  | > 200 |  | > 500 |  |  |  |  | Activity [31]: Active
CCCC(CCC)C(=O)O |  |  |  |  |  |  |  |  |  |  |  |  |  |  |  |  |  |  |  |  | Activity [32]: Active
CC[C@@H](C(N)=O)N1CCCC1=O [LEVETIRACETAM] |  |  |  |  |  |  |  |  |  |  |  |  |  |  |  |  |  |  |  |  | ED50 [33]: > 500 mg/kg; ED50 [34]: > 500 mg/kg; selectivity ratio at 1 h [35]: > 33.8; TD50 at 1 h [36]: > 500 mg/kg
CC1CC(=O)N(C(C)C(=O)N2CCN(c3cccc(Cl)c3)CC2)C1=O (stereo unspecified) | 261 | inactive | 2.3 | Active | 270 | 11.1 | Active | 2.91 | 19.2 | 24.4 | Active | 114 | 98.5 | 13.6 | 2.74 | 89.7 | 121 | inactive | 45% | 74 | Activity [39]: Dose-dependent effect; Activity [41]: Active; Activity [42]: Active; Activity [43]: inactive; Activity [44]: 88%; selectivity ratio at 0.5 h [17]: 2.23
CC(C(=O)N1CCN(c2cccc(C(F)(F)F)c2)CC1)N1C(=O)CC(C)(C)C1=O (stereo unspecified) | 425 | inactive |  |  |  |  | Active | 3.73 | 14.7 |  |  |  |  | 29 |  | 114 |  | inactive | 56% | 96 | Activity [41]: Active; Activity [42]: Active; Activity [45]: Active; Activity [44]: 93%; Activity [10]: Active; Activity [46]: Active; Activity [47]: inactive; Activity [48]: 98%
CCC(C(=O)N1CCN(c2cccc(C(F)(F)F)c2)CC1)N1C(=O)CC(C)C1=O (stereo unspecified) | 164 |  | 1.51 | Active | 170 | 4.12 |  | 2.19 | 5.42 | 41.2 | Active | 108 | 75.7 | 30.3 | 2.24 | 75.1 | > 130 | inactive | inactive | 94 | Activity [39]: Dose-dependent effect; Activity [41]: Active; Activity [43]: inactive; Activity [44]: 57%; Activity [49]: inactive
